From article PMC7536268, “Increased Antimicrobial Activity of Colistin in Combination With Gamithromycin Against Pasteurella multocida in a Neutropenic Murine Lung Infection Model” (Frontiers in Microbiology, 2020)
Like-named read-outs stand apart in the source and are kept apart here. Where a SMILES comes first, the peptide text is derived from it. Bridges are numbered along the chain shown (N, C = ends). [ ]: non-standard residue; d: D form. The star is where a group is joined. X1 = CC[C@H](C)CCCCC(=O)*; Dab = NCC[C@H](N)C(=O)O

Columns and labels:
[1] = test system: Pasteurella multocida (D18, T5, and WJ11); experiment: In vitro time-kill assays; type: cell-based; settings: colistin alone 0.25-1 mg/L, 24 h, all strains (D18, T5, WJ11), inoculum ~5 × 10^6 CFU/mL
Method: In vitro time-kill assays were used to evaluate the effects of colistin alone and in combination with gamithromycin over 24 h. Three isolates of P. multocida (D18, T5, and WJ11) were tested. A P. multocida inoculum at ∼5 × 10^6 CFU/mL was treated with colistin alone at 0.25, 0.5, and 1 mg/L; gamithromycin alone at 0.125, 0.25, and 0.5 mg/L; and with colistin in combination with gamithromycin. At 0, 1, 2, 4, 6, 8, 12, and 24 h after incubation, 100-μL samples were taken from each tube for colony counting. A growth control without drug administration was included in all tests.

[2] = parameters: method as in Soon-Ee et al., 2015; settings: ref Soon-Ee et al., 2015; cited from earlier work
[3] = test system: Pasteurella multocida strains; experiment: MIC by broth microdilution (CLSI); type: cell-based; settings: drug alone, broth microdilution, Mueller-Hinton broth, triplicate
Method: The susceptibility of the selected P. multocida isolates and the quality control isolate (ATCC 25922) to colistin, gamithromycin, cefquinome, enrofloxacin, tilmicosin, tylosin tartrate, and florfenicol alone was determined using the microdilution method in broth (conducted in triplicate) according to the guiding principles of the CLSI. Based on the action mechanism of each drug, the antimicrobial activity of colistin or cefquinome (drug A) in combination with gamithromycin, enrofloxacin, tilmicosin, tylosin tartrate, or florfenicol (drug B) was determined with the checkerboard method, according to the minimal inhibitory concentration (MIC) of each drug. Briefly, 50 μL of MH II broth was added to each well, and 50 μL of the indicated concentration of colistin or cefquinome was added into the first well of each line. This was followed by multiproportion dilution. Next, 50-μL samples of different concentrations of gamithromycin or the other drugs mentioned above were added to the dilution medium, and a 100 μL inoculum with a cell density of ∼1 × 10^6 colony-forming units (CFU)/mL was added to each well. The plates were then incubated at 37°C for 24 h. According to the EUCAST definitive document E.Def 1.2 ([Mccullough, 2010]), the fractional inhibitory concentration (FIC) index for combined administrations was defined as the sum of the FIC of drug A and the FIC of drug B, where FIC is the MIC of the drug combined with other drugs, divided by the MIC of the drug alone.

[4] = In vitro plasma protein binding, equilibrium dialysis; type: in vitro ADME; settings: 72 h at 4°C
Method: In vitro plasma protein-binding experiments for gamithromycin were conducted by adopting an equilibrium dialysis method for 72 h at 4°C. The corresponding unbound plasma PK parameters were obtained and used for the integration of PK and PD data.

[5] = test system: Pasteurella multocida strains (D18, T5, and WJ11); experiment: PK/PD relationship analysis (inhibitory Emax model, plasma AUC/MIC, target doses); type: in vivo; settings: gamithromycin monotherapy; for Gamithromycin AUC/MIC required to reach 1-log10 kill / Gamithromycin AUC/MIC required to reach stasis: plasma AUC
Method: The relationship between the in vivo antimicrobial activity of gamithromycin alone or in combination with colistin and the ratio of plasma PK parameters to the MIC of gamithromycin was assessed. An inhibitory effect Emax model from the Phoenix WinNonlin identification module was used for analysis based on the equation: E = Emax − (Emax−E0) × Ce/(Ce + EC50), where E is the antimicrobial effect (i.e., the change in bacterial burden in CFU per lung), Emax is the change in log10 CFU/lung for control groups, […], Ce is the PK/PD index under analysis, and EC50 is the Ce value at 50% of E0.
Integration of PK and PD data is important for clinical drug administration ([Toutain et al., 2002]). Herein, PK values in plasma were used to calculate the PK/PD index, which was integrated with changes in bacteria log10 CFU/lung. Antimicrobials that achieve significant PAE values are generally described as concentration-dependent ([Jacobs, 2004]).

P. multocida = test system: P. multocida; parameters: method as in Benoit et al., 2011; settings: P. multocida with erm(E); ref Benoit et al., 2011; cited from earlier work
Description: Bovine respiratory disease (BRD) associated with Mannheimia haemolytica, P. multocida, and Histophilus somni is one of the most economically important diseases that occur in feedlots, and the global losses are estimated at over $3 billion per year ([Watts and Sweeney, 2010]).

[6] = cattle, SC 6 mg/kg; ref Steeve et al., 2011; cited from earlier work
[7] = swine, SC 6 mg/kg; ref Wyns et al., 2014; cited from earlier work
[8] = strain D18, lungs of mice, n = 4
[9] = strain T5, lungs of mice, n = 4
[10] = strain WJ11, lungs of mice, n = 4

Compound: CC[C@H](C)CCCCC(=O)N[C@@H](CCN)C(=O)N[C@H](C(=O)N[C@@H](CCN)C(=O)N[C@H]1CCNC(=O)[C@H]([C@@H](C)O)NC(=O)[C@H](CCN)NC(=O)[C@H](CCN)NC(=O)[C@H](CC(C)C)NC(=O)[C@@H](CC(C)C)NC(=O)[C@H](CCN)NC1=O)[C@@H](C)O [Colistin] (X1-[Dab]T[Dab][Dab][Dab][dL]L[Dab][Dab]T; lactam 4-C)
- time-kill outcome [1]: incapable of controlling bacterial growth
- unbound extent in plasma [2]: 8.4%

Compound: CCCN1C[C@H](C)[C@@H](O)[C@](C)(O)[C@@H](CC)OC(=O)[C@H](C)[C@@H](O[C@H]2C[C@@](C)(OC)[C@@H](O)[C@H](C)O2)[C@H](C)[C@@H](O[C@@H]2O[C@H](C)C[C@H](N(C)C)[C@H]2O)[C@](C)(O)C[C@H]1C [Gamithromycin]
- MIC ([3]; strain CVCC 444): 0.5 µg/mL
- MIC ([3]; strain D18): 0.5 µg/mL
- MIC ([3]; strain PmP2 (pig)): 0.5 µg/mL
- MIC ([3]; strain PmP17 (pig)): 0.5 µg/mL
- MIC ([3]; strain T5): 0.5 µg/mL
- MIC ([3]; strain WJ11): 0.5 µg/mL
- MIC ([3]; strain WN71): 0.5 µg/mL
- MIC ([3]; strain WW81): 0.5 µg/mL
- MIC ([3]; strain XX12): 0.5 µg/mL
- plasma protein binding extent [4]: 13.83%
- Gamithromycin dose required to reach 1-log10 kill ([5]; Mean ± SD of D18, T5, WJ11, SD): 67.11 ± 6.01 mg/kg
- Gamithromycin dose required to reach stasis ([5]; Mean ± SD of D18, T5, WJ11, SD): 18.43 ± 3.10 mg/kg
- Gamithromycin dose required to reach 1-log10 kill [5, 8]: 65.32 mg/kg
- Gamithromycin dose required to reach stasis [5, 8]: 17.99 mg/kg
- Gamithromycin AUC/MIC required to reach 1-log10 kill ([5]; strain D18, n = 4): 36.74
- Gamithromycin AUC/MIC required to reach stasis ([5]; strain D18, n = 4): 10.33
- Gamithromycin dose required to reach 1-log10 kill [5, 9]: 73.80 mg/kg
- Gamithromycin dose required to reach stasis [5, 9]: 21.73 mg/kg
- Gamithromycin AUC/MIC required to reach 1-log10 kill ([5]; strain T5, n = 4): 41.51
- Gamithromycin AUC/MIC required to reach stasis ([5]; strain T5, n = 4): 12.47
- Gamithromycin dose required to reach 1-log10 kill [5, 10]: 62.19 mg/kg
- Gamithromycin dose required to reach stasis [5, 10]: 15.58 mg/kg
- Gamithromycin AUC/MIC required to reach 1-log10 kill ([5]; strain WJ11, n = 4): 34.98
- Gamithromycin AUC/MIC required to reach stasis ([5]; strain WJ11, n = 4): 8.11
- MIC (P. multocida): ≥ 512 µg/mL
- AUClast [6]: 7.82 mg⋅h/L
- AUClast [7]: 3.48 mg⋅h/L
